# Measured values as given in patent US6190848A, “Color photographic element containing ballasted triazole derivative and inhibitor releasing coupler” (priority 1999, dated 2001).
# How the values were obtained:
# [1] = Bilayer photographic element: interimage (Cg/Cb+g) and relative green sensitivity
# Experimental: Bilayer photographic elements were prepared by coating the following layers on a cellulose triacetate film support (coverages are in g/m^2). Unless otherwise noted, all comparative and inventive compounds were dispersed in twice their own weight of N,N-dibutyllauramide:
# Layer 1 (Antihalation Layer): black colloidal elemental silver at 0.34 and gelatin at2.41.
# Layer 2 (Receiver Layer): gelatin at 2.79, CDIR-2 at 0.03, coupler M-1 (dispersed as described previously) added at 0.045, comparison material (CIEM) or IEM added at 7.2×10^-3 mmol/m^2 (this corresponds to 1.67 mmol per mole silver as AgBr or 0.96 mmol per mole of silver) dispersed in twice its own weight of N,N-dibutyllauramide and 0.81 green sensitized AgIBr tabular emulsion.
# Layer 3 (Interlayer): gelatin at 0.64, ILS-1 at 0.11 and FD-1 at 0.11.
# Layer 4 (Causer Layer): gelatin at 2.79, coupler Y-1 at 0.91, 0.79 blue sensitized AgIBr tabular emulsion and the DIR at 0.11 mmol/m^2.
# Layer 5 (Overcoat): gelatin at 2.79 and 0.02 bis-vinylsulfonemethylether.
# Samples of each element were given a stepped exposure of either green light only or blue and green light combined and processed in the KODAK FLEXICOLOR (C-41) process as described in British Journal of Photography Annual, 1988, pp196-198. Contrast of the elements was determined using the maximum slope between any two density points. In this test, the ratio of the contrast of the green only exposure to the contrast of the green of a blue and green exposure (Cg /Cb+g) is a measure of the interimage. A higher ratio means more inhibition originating from the blue and affecting the green record.
# Another set of bilayer experiments were generated in a similar manner to show the effect of IEM laydown (as mmol per mol silver) and DIR variations.
# [2] = Multilayer film: interimage (density change in receiver record) and relative green or blue sensitivity; details: for Interimage B → G / Relative Green Sensitivity: IDIR-2 in blue layers
# Source text: Comparative examples are designated ML-C; inventive examples are designated ML-I.
# Experimental Sample ML-C-0:
# Layer 1 (Antihalation layer): black colloidal silver sol at 0.140; gelatin at 2.15; OxDS-1 at 0.108, DYE-1 at 0.049; DYE-2 at 0.017 and DYE-3 at 0.014.
# Layer 2 (Slow cyan layer): a blend of three red sensitized (all with a mixture of RSD-1 and RSD-2) silver iodobromide emulsions: (i) a large sized tabular grain emulsion (1.3×0.118, 4.1 mole % I) at 0.522 (ii) a smaller tabular emulsion (0.85×0.115, 4.1 mole % I) at 0.337 and (iii) a very small tabular grain emulsion (0.55×0.115, 1.5 mole % I) at 0.559; gelatin at 2.85; cyan dye-forming coupler C-1 at 0.452; CDIR-1 at 0.043; bleach accelerator releasing coupler B-1 at 0.054 and anti-foggant 4-hydroxy-6-methyl-1,3,3a,7-tetraazaindene at 0.016.
# Layer 3 (Fast cyan layer): a red-sensitized (same as above) tabular silver iodobromide emulsion (2.2×0.128, 4.1 mole % I) at 0.086; cyan coupler C-1 at 0.081; CDIR-1 at 0.034; MC-1 at 0.043; gelatin at 1.72 and anti-foggant 4-hydroxy-6-methyl-1,3,3a,7-tetraazaindene at 0.010.
# Layer 4 (Interlayer): gelatin at 1.29.
# Layer 5 (Slow magenta layer): a blend of two green sensitized (both with a mixture of GSD-1 and GSD-2) silver iodobromide emulsions: (i) 0.54×0.091, 4.1 mole % iodide at 0.194 and (ii) 0.52×0.085, 1.5 mole % iodide at 0.559; magenta dye forming coupler M-1 at 0.24, gelatin at 1.08 and anti-foggant 4-hydroxy-6-methyl-1,3,3a,7-tetraazaindene at 0.005.
# Layer 6 (Mid magenta layer): a blend of two green sensitized (same as above) tabular silver iodobromide emulsions (i) 1.3×0.113, 4.1 mole % I at 0.430 and (ii) […], 4.1 mole % I at 0.172; magenta dye forming coupler M-1 at 0.065; MC-2 at 0.015; IDIR-5 at 0.016; gelatin at 2.12 and anti-foggant 4-hydroxy-6-methyl-1,3,3a,7-tetraazaindene at 0.003.
# Layer 7 (Fast magenta layer): a green sensitized tabular silver iodobromide (1.8×0.127, 4.1 mole % I) emulsion at 0.689; gelatin at 1.61; magenta dye forming coupler M-1 at 0.043; MC-2 at 0.054 and CDIR-2 at 0.003.
# Layer 8 (Yellow filter layer): gelatin at 0.86; Carey-Lea silver at 0.043 and OxDS-2 at 0.054.
# Layer 9 (Slow yellow layer): an equal blend of three blue sensitized (all with YSD-1) silver iodobromide emulsions (i) 0.50×0.085, 1.5 mole % I (ii) 0.60 diameter 3-D, 3% mole I and (iii) 0.68 diameter 3-D, 3 mole % I at a total of 0.430; yellow dye forming coupler Y-2 at 0.699; yellow dye forming coupler Y-3 at 0.215; IDIR-2 at 0.086; C-1 at 0.097 and gelatin at 2.066.
# Layer 10 (Fast yellow layer): two blue sensitized (with YSD-1) silver iodobromide emulsions (i) 3.1×0.137 tabular, 4.1 mole % I at 0.396 (ii) 0.95 diameter 3-D, 7.1 mole % I at 0.47; Y-2 at 0.131; Y-3 at 0.215; IDIR-2 at 0.075; C-1 at 0.011; B-1 at 0.008 and gelatin at 1.08.
# Layer 11 (Protective overcoat and UV filter layer): gelatin at 1.61; silver bromide Lippman emulsion at 0.215; UV-1 and UV-2 (1:1 ratio) at a total of 0.023 and bis(vinylsulfonyl)methane hardener at 1.6% of total gelatin weight.
# Surfactants, coating aids, emulsion addenda. sesquestrants, lubricants, matte and tinting dyes were added to the appropriate layers as is common in the art. The following describes the composition of each particular experimental coating based on ML-C-0:
# ML-C-1: Like ML-C-0, but IDIR-6 replaces IDIR-2 in layers 9 and 10 at equimolar levels.
# ML-C-2: Like ML-C-0, but IDIR-1 replaces IDIR-5 in layer 6 at 0.032.
# ML-I-0: Like ML-C-0, but IEM-A added at 3×10^-4 in layer 5, 2×10^-4 in layer 6 and 2.9×10^-4 in layer 7.
# ML-I-1: Like ML-C-0, but IEM-A added at 3×10^-3 in layer 5, 2×10^-3 in layer 6 and 2.9×10^-3 in layer 7.
# ML-I-2: Like ML-C-0, but IEM-A added at 3×10^-2 in layer 5, 2×10^-2 in layer 6 and 2.9×10^-2 in layer 7.
# ML-I-3: Like ML-C-0, but IEM-A added at 1.6×10^-3 in layers 9 and 10.
# ML-I-4: Like ML-C-1, but IEM-A added at 1.6×10^-3 in layers 9 and 10.
# ML-I-5: Like ML-C-2, but IEM-A added at 1.6×10^-3 in layers 9 and 10. […]
# [3] = Table III BL-23: laydown 0.96 mmol per mol silver, IDIR-2 in blue
# [4] = Table III BL-24: laydown 9.6 mmol per mol silver, IDIR-2 in blue
# [5] = Table III BL-26: laydown 0.96 mmol per mol silver, IDIR-6 in blue
# [6] = Table III BL-27: laydown 9.6 mmol per mol silver, IDIR-6 in blue
# [7] = Table IV ML-I-0: 0.14 mmol IEM-A/mol silver in layers 5, 6, 7
# [8] = Table IV ML-I-1: 1.4 mmol IEM-A/mol silver in layers 5, 6, 7
# [9] = Table IV ML-I-2: 14 mmol IEM-A/mol silver in layers 5, 6, 7
# [10] = Table V ML-I-3: IEM in blue layer, IDIR-2 in blue, IDIR-5 in green
# [11] = Table V ML-I-4: IEM in blue layer, IDIR-6 in blue, IDIR-5 in green
# [12] = Table V ML-I-5: IEM in blue layer, IDIR-2 in blue, IDIR-1 in green
# [13] = Table V ML-I-6: IEM in blue layer, IDIR-6 in blue, IDIR-1 in green
compound,measurement,setting,value
CCC(C)(C)c1ccc(OCCCCNC(=O)c2ccc3[nH]nnc3c2)c(C(C)(C)CC)c1 [IEM-A],Cg /Cb+g (interimage ratio),"[1]; Table II, IDIR-2 in blue layer, IEM or CIEM at 7.2×10^-3 mmol/m^2",1.65
same,Cg /Cb+g (interimage ratio),[1]; [3],1.95
same,Relative Green Sensitivity,[1]; [3],0.95
same,Cg /Cb+g (interimage ratio),[1]; [4],1.62
same,Relative Green Sensitivity,[1]; [4],0.82
same,Cg /Cb+g (interimage ratio),[1]; [5],1.33
same,Relative Green Sensitivity,[1]; [5],0.96
same,Cg /Cb+g (interimage ratio),[1]; [6],1.59
same,Relative Green Sensitivity,[1]; [6],0.89
same,Interimage B → G,[2]; [7],-0.041
same,Relative Green Sensitivity,[2]; [7],0.99
same,Interimage B → G,[2]; [8],-0.100
same,Relative Green Sensitivity,[2]; [8],0.96
same,Interimage B → G,[2]; [9],-0.097
same,Relative Green Sensitivity,[2]; [9],0.82
same,Interimage G → B,[2]; [10],-0.154
same,Relative Blue Sensitivity,[2]; [10],0.98
same,Interimage G → B,[2]; [11],-0.155
same,Relative Blue Sensitivity,[2]; [11],0.97
same,Interimage G → B,[2]; [12],-0.202
same,Relative Blue Sensitivity,[2]; [12],0.98
same,Interimage G → B,[2]; [13],-0.243
same,Relative Blue Sensitivity,[2]; [13],0.96
